According to ChEMBL document CHEMBL5729167, “Substituted dihydrothienopyrimidines and their use as phosphodiesterase inhibitors” (2022):

Target: Tumor necrosis factor (Homo sapiens, UniProt P01375)
Assay: TNF-alpha RELEASE: Human peripheral blood mononuclear cells (PBMC) were isolated from fresh buffy coats by density centrifugation using lymphoprep tubes (Medinor). Frozen PBMC's were washed in serum free assay buffer (RPMI1640 with 25 mM HEPES, 1% pen/strep, […], 0.5% human serum albumin) and living cells counted. Lipopolysaccharide (1 microg/ml; SIGMA) was added to the cells which were then transferred to 384 well tissue culture plates (5×105 c/ml) containing titrated test compounds. The cells were incubated for 18 hours at 37° C. in serum free assay buffer and the level of TNFalpha in the supernatant was quantitated by AlphaLISA (PerkinElmer) by measuring fluorescence intensity at 615 nm.Results were expressed as IC50 values calculated from inhibition curves using as controls the secretion in LPS stimulated wells and the secretion in cells incubated with 10 microM of a PDE4 inhibitor reference compound.

Sequence of Tumor necrosis factor (P01375 whole entry): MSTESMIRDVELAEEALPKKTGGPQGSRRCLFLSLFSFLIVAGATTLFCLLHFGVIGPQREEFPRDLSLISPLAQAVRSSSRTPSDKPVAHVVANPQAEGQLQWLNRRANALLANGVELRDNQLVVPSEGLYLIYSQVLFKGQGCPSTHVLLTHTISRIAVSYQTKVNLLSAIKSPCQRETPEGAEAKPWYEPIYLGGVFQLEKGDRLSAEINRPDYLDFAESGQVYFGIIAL

`CC(=O)N1CC[C@@H](Nc2nc(N3CC(OC(=O)C4CCOCC4)C3)nc3c2[S@+]([O-])CC3)C1` was tested, and the IC50 was over 0.5 µM.
